PubChem BioAssay (NCI)
“And” between values parts separate entries of the source, which are not always exact repeats. Identical values can stand only once.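 Briefly, cells in 96-well plates were exposed to five compound concentrations for 48 h, and endpoints were estimated by linear interpolation. GI50 marks 50% less growth. At the TGI there is no net growth.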

Key:
Assay in all cases: inhibition of tumour cell growth, NCI panel, 48 h
[1] = test system: SK-MEL-5 melanoma
[2] = test system: TK-10 renal
[3] = test system: SK-MEL-2 melanoma
[4] = test system: CCRF-CEM leukemia
[5] = test system: SNB-75 CNS
[6] = test system: SN12C renal
[7] = test system: LOX IMVI melanoma
[8] = test system: HCC-2998 colon
[9] = test system: M14 melanoma
[10] = test system: MDA-MB-231 breast

| SMILES | TGI [1] | TGI [2] | TGI [3] | TGI [4] | TGI [5] [µM] | TGI [6] [µM] | TGI [7] | TGI [8] [µM] | TGI [9] [µM] | GI50 [1] | GI50 [8] [µM] | GI50 [4] [µM] | GI50 [5] [µM] | GI50 [6] [µM] | GI50 [10] [µM] | TGI [10] | GI50 [7] [µM] | GI50 [9] | GI50 [2] | GI50 [3] |
| --- | --- | --- | --- | --- | --- | --- | --- | --- | --- | --- | --- | --- | --- | --- | --- | --- | --- | --- | --- | --- |
| COc1ccc(N=Cc2cc(OC)c(OC)c(OC)c2)cc1 | > 100 µM | > 100 µM | > 100 µM | > 100 µM | > 100 | > 100 | > 100 µM | – | – | – | – | – | – | – | – | – | – | – | – | – |
| O=C1CC[C@H]2CNC(=O)C[C@H]2C1 | > 100 µM | > 100 µM | > 100 µM | > 100 µM | > 100 | > 100 | > 100 µM | > 100 | > 100 | – | – | – | – | – | – | – | – | – | – | – |
| CC(=O)/C=C/c1cccc(N=S)c1 | 63.4 µM | > 89.9 µM | – | > 49.1 µM | > 91.8 | 87.2 | 5.92 µM | 34.6 | 22.4 | – | – | – | – | – | – | – | – | – | – | – |
| ClCc1ccccc1CSc1ncnc2nc[nH]c12 | > 60 µM | – | – | > 60 µM | > 60 | > 60 | > 60 µM | > 60 | > 60 | > 60 µM | > 60 | > 60 | > 60 | > 60 | > 60 | > 60 µM | > 60 | > 60 µM | – | – |
| c1ccc(-c2nnc(-c3nn(-c4ccccc4)c4nc5ccccc5nc34)o2)cc1 | – | > 100 µM | > 100 µM | 85.5 µM | > 100 | > 100 | > 100 µM | > 100 | > 100 | – | – | – | – | – | – | – | – | – | – | – |
| O=C1NC(=O)C2C(=O)NC(=O)C1C2(c1ccccc1)c1ccc(Cl)cc1 (stereo unspecified) | > 100 µM | > 100 µM | > 100 µM | > 100 µM | > 100 | > 100 | > 100 µM | > 100 | > 100 | – | – | – | – | – | – | – | – | – | – | – |
| C[Si](C)(C)c1ccc(CC2(Cc3ccc([Si](C)(C)C)cc3)CCNC2)cc1 | 3.35 µM | 35.5 µM | 3.41 µM | 48.1 µM | 7.67 | 3.11 | 3.19 µM | 4.43 | 3.31 | – | – | – | – | – | – | – | – | – | – | – |
| CCOC(=O)CCCO | > 100 µM | > 100 µM | > 100 µM | > 100 µM | > 100 | > 100 | > 100 µM | > 100 | > 100 | – | – | – | – | – | – | – | – | – | – | – |
| COc1cccc(-c2nc(-c3cnccn3)n(Cc3ccccc3)n2)c1 | > 100 µM | > 100 µM | – | > 100 µM | > 100 | > 100 | > 100 µM | > 100 | > 100 | – | – | – | – | – | – | > 100 µM | – | – | – | – |
| O=C(O)CCCc1ccc(N(CCCl)CCCl)cc1 | 39.5 µM and 210 µM and 225 µM | 70.8 µM and 471 µM and 221 µM | 52 µM and 314 µM and 344 µM | 34.2 µM and 170 µM and 18.6 µM | – | – | 31.9 µM and 183 µM and 265 µM | – | – | 20.3 µM and 110 µM | – | 0.881 | – | – | 265 | 334 µM and 606 µM | – | 14.9 µM and 91.3 µM | 25.4 µM and 81.4 µM | 31.8 µM and 270 µM |
| O=C(Nc1ccccc1[N+](=O)[O-])c1ccccc1 | > 100 µM | > 100 µM | – | – | > 100 | > 100 | > 100 µM | > 100 | > 100 | – | – | – | – | – | – | – | – | – | – | – |
| COc1ccc(/C=C(/C(=O)O)c2cc(OC)c(OC)c(OC)c2)cc1 | > 100 µM | – | > 100 µM | > 100 µM | 79 | > 100 | – | > 100 | 99.1 | – | – | – | – | – | – | – | – | – | – | – |
| CC(=O)OCCc1cccnc1/C=N/O | > 100 µM | > 100 µM | > 100 µM | > 100 µM | > 100 | > 100 | > 100 µM | > 100 | > 100 | – | – | – | – | – | – | – | – | – | – | – |
| O=C(/C=C/c1cccs1)c1ccc(Cl)cc1 | > 100 µM | > 100 µM | > 100 µM | 68 µM | > 100 | > 100 | – | > 100 | – | – | – | – | – | – | – | > 100 µM | – | – | – | – |
| NC1(CCCCCCCCCCC(=O)O)CNCCNCCNCCNC1 | > 100 µM | > 100 µM | > 100 µM | > 100 µM | – | > 100 | – | 46 | > 100 | – | – | – | – | – | – | – | – | – | – | – |
| C[C@]12CCC(=O)C=C1CC[C@@H]1C2CC[C@]2(C)NC(=O)C(C#N)CC12 (stereo partly specified) | > 100 µM | > 100 µM | > 100 µM | > 100 µM | > 100 | – | – | > 100 | > 100 | – | – | – | – | – | – | – | – | – | – | – |
| N#Cc1nc(-c2ccc(F)cc2)oc1S(=O)(=O)N1CCOCC1 | 18.8 µM | 3.26 µM | 27.5 µM | 7.35 µM | 22 | 4.1 | 2.3 µM | 25.5 | – | 6.33 µM | 11.9 | 1.62 | 10.2 | 1.77 | 2.86 | 8.64 µM | 1.02 | – | 1.75 µM | 13.4 µM |
| O=C(O/N=C1/CCC/C1=C\c1ccccc1)c1ccc([N+](=O)[O-])cc1 | > 100 µM | > 100 µM | > 100 µM | > 100 µM | 91.3 | > 100 | > 100 µM | 25.7 | > 100 | – | – | – | – | – | – | – | – | – | – | – |
| CN1CCCNCCN(CCc2ccccn2)CCCN(C)CC1 | > 100 µM | > 100 µM | > 100 µM | > 60 µM | > 100 | > 100 | > 79.1 µM | > 100 | > 100 | – | – | – | – | – | – | – | – | – | – | – |
| O=C(N/N=C/c1cccc(O)c1O)N/N=C/c1cccc(O)c1O | – | > 100 µM | > 100 µM | 38.5 µM | 50.4 | > 100 | > 100 µM | – | 34 | – | – | – | – | – | – | – | – | – | – | – |
| C/C(=N\NC(N)=S)c1ccc(C)cc1C | > 100 µM | > 100 µM | > 100 µM | > 100 µM | > 100 | > 100 | > 100 µM | > 100 | > 100 | – | – | – | – | – | – | – | – | – | – | – |
| CCOC(=O)c1cc(-c2ccc([N+](=O)[O-])cc2)n(-c2ccc(C(=O)O)c(O)c2)c1C | 3.43 µM | 20 µM | 24.7 µM | > 100 µM | 22.1 | 22.6 | 11 µM | – | 15.2 | 1.64 µM | – | 2.75 | 7.65 | 6.73 | 10.3 | 29.9 µM | 2.85 | 4.26 µM | 6.18 µM | 11.5 µM |
